Laboratory results reported in article PMC4585835 (Scientific Reports, 2015).
Like-named read-outs stand apart in the source and are kept apart here. Where a SMILES comes first, the peptide text is derived from it. [ ]: non-standard residue; d: D form. The star is where a group is joined. Stearoyl = CCCCCCCCCCCCCCCCCC(=O)*

Key:
[1] = system: rat plasma; assay: Time course of APTT in rat plasma after peptide administration; format: in vivo
Procedure: Peptides were administrated to male SD rats (280–320 g) via tail veins. At different time points (0, 20, 40, 60, 90, 120, 180, and 240 min; or 0, 1, 2, 3, 4, 5, 8, and 12 h) after peptide injection, blood samples were collected via retroorbital vein plexus, and then mixed with 3.2% sodium citrate solution in a ratio of 9:1 (v/v). The resulting mixtures were centrifuged at 2,000 g for 15 min at 4 °C. The APTT of rat plasma was determined on a coagulation analyzer (Coatron M1, TECO, Germany) following the manual protocol. Briefly, a cuvette with 0.05 mL rat plasma was first warmed to 37 °C for 2 min, and then 0.05 mL of the warmed APTT reagent was added, followed by incubating at 37 °C for 3 min. Afterwards, 50 μL calcium chloride solution (0.25 M) was added into the cuvette, and the clotting time of plasma samples was recorded immediately with the coagulation analyser (APTT).

[2] = Bleeding time test (BT) in rats; format: in vivo, rat; conditions: for increase on the bleeding time compared with the saline group: 30 min; for bleeding time (BT): 30 min after administration
Procedure: Bleeding time was determined as reported previously. Male SD rats (180–220 g) were divided into 6 groups (n = 8). […] Thirty minutes after the injection, bleeding was induced by tail transection of the anesthetized rat with a size 21 disposable scalpel blade 2 mm from the tail tip. The bleeding tail was wiped with filter paper every 30 s, and the bleeding time was recorded when no blood was observed on the filter paper.

[3] = system: rat blood; assay: Coagulation time (CT) of rat blood; format: in vivo
Procedure: CT was obtained using the modified Dale’s method. […] Thirty min after administration, blood samples were taken from the rat vein under eye ball with glass capillaries (20 μL), which were broken after 10 s, followed by a coagulation check. The time between blood extraction and blood coagulation in each capillary was recorded as coagulation time (CT).

[4] = Pharmacokinetics in rats, i.v.; format: in vivo; conditions: rat
Procedure: SD Rats were randomly divided into three groups (n = 5). […] All blood samples were immediately centrifuged at 5000 rpm for 5 min at room temperature, and the plasma obtained was stored at −20 °C before analysis. To the rat plasma (100 μL) was added 10 μL internal standard (80 ~ 100 ng/ml Carbamazepine), followed by mixing with 200 μL methanol with vortexing for 1 min. At this stage, certain amounts of proteins may precipitate out, thus this mixture was centrifuged at 12,000 rpm for 5 min at room temperature to achieve complete separation. The 20 μl supernatant was injected into a HPLC (Symbiosis, Spark, Holland; column: 50 mm × 2.1 mm, 5 μm, Agilent Eclipse Plus) –MS/MS system (ABI 4000 Q-Trap triple quadrupole mass spectrometer) equipped with electrospray ionization (ESI) source in the positive ion mode (Foster City, USA). The HPLC elution gradient was as follows: 0–0.5 min, 5–5% (B); 0.5–3 min, 5–95% (B); 3–4 min, 95–95% (B); 4–4.06 min, 95–5% (B); 4.06–6 min, 5–5% (B); the flow-rate was 0.4 ml/min; A was 0.1% formic acid/Waterl, B was 0.1% formic acid/methanol. The MS parameters were: CUR10Psi; Ion Spray Voltage (IS) 5500v; Collision activated dissociation (CAD) High, Gas1 = 50 psi, Gas2 = 50 psi, TEM = 500 °C.
All three peptides remained stable in plasma during three freeze/thaw cycles, at room temperature for at least 2 h. The supernatant of plasma samples were also found to be stable for at least 24 h at 10 °C in the autosampler.
The statistical significance of the difference among pharmacokinetic parameters was determined using the mean comparison Student’s t-test, and the resulting P values were lower than 0.05, which is considered to be statistically significant.

[5] = target: T1, trypsin (Bos taurus, UniProt P00760); assay: Degradation mediated by trypsin (HPLC); format: in vitro ADME; conditions: trypsin (119 ng/μL) in Tris-HCl buffer, pH 8.5, 119 μg/ml trypsin, peptide 0.79 mM, 37 °C, read-out: peptide intact after incubation with trypsin
T1 construct: purchased Roche Corp (Indianapolis, USA)
T1 sequence (P00760 24-246): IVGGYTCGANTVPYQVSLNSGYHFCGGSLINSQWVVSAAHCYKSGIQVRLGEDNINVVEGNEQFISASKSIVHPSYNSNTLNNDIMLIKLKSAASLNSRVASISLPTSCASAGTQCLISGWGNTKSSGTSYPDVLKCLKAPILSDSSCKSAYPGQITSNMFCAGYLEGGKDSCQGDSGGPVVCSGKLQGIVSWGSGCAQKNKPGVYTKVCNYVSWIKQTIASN
Text: The degradation of peptides mediated by trypsin can be effectively monitored by HPLC analysis. […] The detector wavelength was set at 214 nm.

[6] = target: T2, human thrombin (Homo sapiens, UniProt P00734); assay: Degradation mediated by human thrombin (HPLC); format: in vitro ADME; conditions: human thrombin (69 NIH/mL) in Tris-HCl buffer, pH 8, 69 NIH/ml human thrombin, peptide 0.41 mM, 37 °C, read-out: peptide remained after reaction with human thrombin
T2 construct: purchased National Institute for the Control of Pharmaceutical and Biological Products (Beijing, China)
Procedure: The catalytic cleavage of peptides mediated by thrombin was also examined using the same method. Specifically, a peptide solution (0.41 mM) was first incubated with thrombin (69 NIH/mL) in Tris-HCl buffer (70 mM Tris HCl, NaCl 50 mM, pH = 8.0) at 37 °C.

[7] = SD, plasma, iv, 1 umol/kg, 1 μmol/kg i.v., n = 5

What does the source list for CCCCCCCCCCCCCCCCCC(=O)NCCCC[C@H](NC(=O)CNC(=O)[C@@H]1CCCN1C(=O)[C@H](CCCNC(=N)N)NC(=O)[C@@H]1CCCN1C(=O)[C@H](N)Cc1ccccc1)C(=O)NCC(=O)NCC(=O)N[C@@H](CCC(N)=O)C(=O)NCC(=O)N[C@@H](CC(=O)O)C(=O)N[C@@H](Cc1ccccc1)C(=O)N[C@@H](CCC(=O)O)C(=O)N1CCC[C@H]1C(=O)N[C@H](C(=O)N1CCC[C@H]1C(=O)N[C@@H](CCC(=O)O)C(=O)N[C@@H](CC(=O)O)C(=O)N[C@@H](C)C(=O)N[C@@H](Cc1ccc(O)cc1)C(=O)N[C@@H](CC(=O)O)C(=O)N[C@@H](CCC(=O)O)C(N)=O)[C@@H](C)CC [Peptide S2] (H-[dF]PRPGK(Stearoyl)GGQGDFEPIPEDAYDE-NH2; N-terminus assumed)?
APTT of rat plasma, time course ([1]; after injection via tail vein, Fig. 1D): increased in the first 4 h, and then decreased; duration of antithrombotic activity (APTT) ([1]; rat plasma after peptide administration): more than 8 h; increase on the bleeding time compared with the saline group ([2]; 0.5 mg/kg): 29.03%; bleeding time (BT) ([2]; 0.5 mg/kg): 300.00 ± 35.86 s; increase on the bleeding time compared with the saline group ([2]; 1.0 mg/kg): 122.58%; bleeding time (BT) ([2]; 1.0 mg/kg): 517.50 ± 38.45 s; increase on the bleeding time compared with the saline group ([2]; 2.0 mg/kg): 174.19%; bleeding time (BT) ([2]; 2.0 mg/kg): 637.50 ± 74.79 s; anticoagulant activity (CT) compared with references ([3]; 1.0 mg/kg peptide S2): superior to the 8 mg/kg hirulog-1 and 200 IU/kg heparin; coagulation time (CT) of rat blood ([3]; 30 min after administration): significantly prolong; AUC(0-inf) [4, 7]: 26.5 µM·h; Cmax [4, 7]: 10.1 ± 1.1 µM; clearance [4, 7]: 0.7 ± 0.1 mL/min/kg; AUC(0-t) ([4]; SD, plasma, iv, 1 umol/kg, 1 μmol/kg i.v., n = 5, read-out: AUC(0-t) (converted)): 22.9 µM·h; Vd ([4]; SD, plasma, iv, 1 umol/kg, 1 μmol/kg i.v., n = 5, read-out: Vss): 0.146 ± 0.0155 L/kg; half-life [4, 7]: 3.54 ± 0.973 h; MRT last ([4]; in vivo, iv, 1 umol/kg, 1 μmol/kg i.v., n = 5, read-out: MRT0-t (converted)): 3.29 h; half-life, fold longer than hirulog-1 [4]: 13.1 fold; half-life, fold longer than peptide 1 [4]: 14.7 fold; AUC(0-t) ([4]; 1 μmol/kg i.v., n = 5): 22.862 ± 3.463 µM·h; AUC(0-∞) ([4]; 1 μmol/kg i.v., n = 5): 1590.6 ± 311.7 nmol·min/mL; remaining at 3 h, 0.79 mM ([5]; 3 h): 39%; remaining at 5 h, 0.79 mM ([5]; 5 h): 23%; remaining at 3 h, 0.41 mM ([6]; 3 h): 93%; remaining at 5 h, 0.41 mM ([6]; 5 h): 69%
